Assay results taken from the supplement of paper PMC10307832.

Experiments:
Assay in all cases: relative viability (nuclei count vs DMSO), 5 days (fraction); higher = more cells survive
Axitinib + OSI-027 = compound: CNC(=O)c1ccccc1Sc1ccc2c(/C=C/c3ccccn3)n[nH]c2c1 [Axitinib] + COc1cccc2cc(-c3nc([C@H]4CC[C@H](C(=O)O)CC4)n4ncnc(N)c34)[nH]c12 [OSI-027] (partner 0.5 µM)
In short: (§1)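 Medians of duplicate plates are given as relative viability. That measure is the nuclei count in treated wells divided by the count in vehicle wells. Counts were taken on 4× images of lung cancer cell lines in 1536-well plates, 5 days after pin-tool dosing the day after seeding with one drug alone or a fixed anchor-drug dose plus five library-drug doses (not always all listed) in √10 steps.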

Axitinib + Olaparib = compound: CNC(=O)c1ccccc1Sc1ccc2c(/C=C/c3ccccn3)n[nH]c2c1 [Axitinib] + O=C(c1cc(Cc2n[nH]c(=O)c3ccccc23)ccc1F)N1CCN(C(=O)C2CC2)CC1 [Olaparib] (partner 8 µM)
In short: as §1

Bemcentinib + Pictilisib = compound: Nc1nc(Nc2ccc3c(c2)CC[C@@H](N2CCCC2)CC3)nn1-c1cc2c(nn1)-c1ccccc1CCC2 [Bemcentinib] + CS(=O)(=O)N1CCN(Cc2cc3nc(-c4cccc5[nH]ncc45)nc(N4CCOCC4)c3s2)CC1 [Pictilisib] (partner 1 µM)
In short: as §1

Bemcentinib + Olaparib = compound: Nc1nc(Nc2ccc3c(c2)CC[C@@H](N2CCCC2)CC3)nn1-c1cc2c(nn1)-c1ccccc1CCC2 [Bemcentinib] + O=C(c1cc(Cc2n[nH]c(=O)c3ccccc23)ccc1F)N1CCN(C(=O)C2CC2)CC1 [Olaparib] (partner 8 µM)
In short: as §1

Cell Line | relative viability (Axitinib + OSI-027; first compound 0.005 µM) | relative viability (Axitinib + OSI-027; first compound 0.01581 µM) | relative viability (Axitinib + OSI-027; first compound 0.05 µM) | relative viability (Axitinib + OSI-027; first compound 0.1581 µM) | relative viability (Axitinib + OSI-027; first compound 0.5 µM) | relative viability (Axitinib + Olaparib; first compound 0.005 µM) | relative viability (Axitinib + Olaparib; first compound 0.01581 µM) | relative viability (Axitinib + Olaparib; first compound 0.05 µM) | relative viability (Axitinib + Olaparib; first compound 0.1581 µM) | relative viability (Axitinib + Olaparib; first compound 0.5 µM) | relative viability (Bemcentinib + Pictilisib; first compound 0.04 µM) | relative viability (Bemcentinib + Pictilisib; first compound 0.1265 µM) | relative viability (Bemcentinib + Pictilisib; first compound 0.4 µM) | relative viability (Bemcentinib + Pictilisib; first compound 1.265 µM) | relative viability (Bemcentinib + Pictilisib; first compound 4 µM) | relative viability (Bemcentinib + Olaparib; first compound 0.04 µM) | relative viability (Bemcentinib + Olaparib; first compound 0.1265 µM) | relative viability (Bemcentinib + Olaparib; first compound 0.4 µM) | relative viability (Bemcentinib + Olaparib; first compound 1.265 µM) | relative viability (Bemcentinib + Olaparib; first compound 4 µM)
NCI-H1355 | 0.42 | 0.384 | 0.492 | 0.432 | 0.492 | 0.756 | 0.769 | 0.729 | 0.723 | 0.77 | 0.405 | 0.389 | 0.452 | 0.444 | 0.458 | 0.748 | 0.811 | 0.766 | 0.773 | 0.75
LXF-289 | 0.76 | 0.727 | 0.785 | 0.763 | 0.877 | 1.11 | 1.03 | 1.05 | 0.982 | 1 | 0.871 | 0.854 | 0.814 | 0.79 | 0.844 | 1.13 | 1.16 | 1.13 | 1.06 | 1.04
NCI-H3122 | 0.959 | 0.946 | 1.01 | 0.709 | 1.02 | 0.571 | 0.629 | 0.59 | 0.598 | 0.652 | 0.234 | 0.62 | 0.579 | 0.699 | 0.646 | 0.651 | 0.652 | 0.637 | 0.678 | 0.68
NCI-H2023 | 0.437 | 0.446 | 0.396 | 0.337 | 0.468 | 0.528 | 0.487 | 0.495 | 0.555 | 0.574 | 0.205 | 0.261 | 0.239 | 0.276 | 0.248 | 0.461 | 0.487 | 0.463 | 0.511 | 0.501
NCI-H838 | 0.5 | 0.361 | 0.436 | 0.38 | 0.493 | 0.869 | 0.712 | 0.806 | 0.756 | 0.783 | 0.441 | 0.442 | 0.639 | 0.485 | 0.459 | 0.795 | 0.933 | 0.915 | 0.864 | 0.774
COR-L 105 | 0.762 | 0.509 | 0.681 | 0.722 | 0.725 | 0.805 | 0.721 | 0.647 | 0.962 | 0.797 | 0.292 | 0.43 | 0.408 | 0.378 | 0.387 | 0.635 | 0.762 | 0.752 | 0.737 | 0.64
RERF-LC-KJ | 0.701 | 0.529 | 0.553 | 0.503 | 0.61 | 1.1 | 0.853 | 0.964 | 0.81 | 0.951 | 0.535 | 0.575 | 0.652 | 0.562 | 0.572 | 0.873 | 0.928 | 0.896 | 0.976 | 0.782
